Results reported in patent publication US10246444B2, “1,2-dithiolane and dithiol compounds useful in treating mutant EGFR-mediated diseases and conditions” (Sabila Biosciences LLC, priority 2017, dated 2019).

How the values were obtained:
EGFR E746-A750del = EGFR E746-A750del (Homo sapiens (Human), UniProt P00533, DEL746-750); test: KINOMEscan competition binding assay (Kd); conditions: KINOMEscan binding constant; read-out: Kd Activity Level (EGFR E746-A750del)
Protocol: (§3) The assay is performed by combining three components: DNA-tagged kinase; immobilized ligand; and a test compound. The ability of the test compound to compete with the immobilized ligand is measured via quantitative PCR of the DNA tag.
(§4) For most assays, kinase-tagged T7 phage strains were prepared in an E. coli host derived from the BL21 strain. E. coli were grown to log-phase and infected with T7 phage and incubated with shaking at 32° C. until lysis. The lysates were centrifuged and filtered to remove cell debris. The remaining kinases were produced in HEK-293 cells and subsequently tagged with DNA for qPCR detection. Streptavidin-coated magnetic beads were treated with biotinylated small molecule ligands for 30 minutes at room temperature to generate affinity resins for kinase assays. The liganded beads were blocked with excess biotin and washed with blocking buffer (SeaBlock (Pierce), 1% BSA, 0.05% Tween 20, 1 mM DTT) to remove unbound ligand and to reduce nonspecific binding. […] All reactions were performed in polystyrene 96-well plates in a final volume of 0.135 ml. […] The kinase concentration in the eluates was measured by qPCR.

EGFR S752-I759del = EGFR S752-I759del (Homo sapiens (Human), UniProt P00533, DEL752-759); test: KINOMEscan competition binding assay (Kd); conditions: KINOMEscan binding constant; read-out: Kd Activity Level (EGFR S752-I759del)
Protocol: as §3, §4

EGFR (L858R) = EGFR (L858R) (Homo sapiens (Human), UniProt P00533, L858R); test: KinaseSeeker rabbit reticulocyte lysate competition binding assay (IC50)
Protocol: (§5) Luminescence readout translates into a highly sensitive and robust assay with low background and minimal interference from test compounds.
(§6) 10 mM stock solutions of test compounds were serially diluted in DMSO to make assay stocks. Prior to initiating IC50 determinations, the test compounds were evaluated for false positive against split-luciferase.
(§7) For kinase assays, Cfluc-kinase was translated along with Fos-Nfluc using a cell-free system (rabbit reticulocyte lysate) at 30° C. for 90 min. 24 uL aliquot of this lysate containing either 1 uL of DMSO (for no-inhibitor control) or compound solution in DMSO was incubated for 30 minutes at room temperature followed by 1 hour in presence of a kinase specific probe. 80 uL of luciferin assay reagent was added to each solution and luminescence was immediately measured on a luminometer.
(§8) The % Activity was plotted against compound concentration and the IC50 was determined for each compound using a 7-point curve (Jester, B. W.; et. al. J. Am. Chem. Soc. 2010, 132, 11727-11735. Jester, B. W.; et. al. J. Med. Chem. 2012, 55, 1526-1537).

EGFR WT = EGFR WT (Homo sapiens (Human), UniProt P00533); test: as above
Protocol: as §5, §6, §7, §8

HER2 = HER2 (Homo sapiens (Human), UniProt P04626); test: as above
Protocol: as §5, §6, §7, §8

[1] = target: various mutant EGF receptors (Homo sapiens, UniProt P00533, A750P/DEL747-749); test: KINOMEscan competition binding assay (Kd), Example 40 in various mutant EGF receptors (Table 17)
Protocol: as §3, §4

[2] = target: various mutant EGF receptors (Homo sapiens, UniProt P00533, DEL747-751/INS746S); test: as above
Protocol: as §3, §4

[3] = target: various mutant EGF receptors (Homo sapiens, UniProt P00533, DEL747-752/P753S); test: as above
Protocol: as §3, §4

[4] = target: various mutant EGF receptors (Homo sapiens, UniProt P00533, G719C); test: as above
Protocol: as §3, §4

[5] = target: various mutant EGF receptors (Homo sapiens, UniProt P00533, G719S); test: as above
Protocol: as §3, §4

[6] = target: various mutant EGF receptors (Homo sapiens, UniProt P00533, L861Q); test: as above
Protocol: as §3, §4

kinase [7] = target: kinase (Homo sapiens, UniProt Q15303); test: Radioisotope filter binding assay (33P-ATP kinase activity, IC50); format: biochemical; conditions: HER 4, read-out: IC50 Activity level HER 4
Protocol: (§1) Radioisotope Filter Binding Assay: In this assay format, it directly detects the true product without the use of modified substrates or coupling enzymes (Uitdehaag, J. C. et al. Br. J. Pharmacol. 2012, 166, 858-876; Hastie, C. J. et al. Nat. Protoc. 2006, 1, 968-971) according to equation 1.
(§2) The protocol calls for test compound of the invention to be incubated with kinase, substrate, cofactors, and radio-isotope-labeled ATP (^33P-gamma-ATP). The reaction mixtures are then spotted onto filter papers which bind the radioisotope labeled catalytic product. Unreacted phosphate is removed via washing. The reagents used include base reaction buffer; 20 mM Hepes (pH 7.5), 10 mM MgCl2, 1 mM EGTA, 0.02% Brij35, 0.02 mg/ml BSA, 0.1 mM Na3VO4, 2 mM DTT, 1% DMSO. The reaction procedure include the following steps: (1) prepare indicated substrate in freshly prepared base reaction buffer, (2) deliver any required cofactors to the substrate solution above, (3) deliver indicated kinase into the substrate solution and gently mix, (4) deliver compounds in DMSO into the kinase reaction mixture by Acoustic technology (Echo550; nanoliter range), incubate for 20 minutes at room temperature, (5) deliver ^33P-ATP (specific activity 10 μCi/μL) into the reaction mixture to initiate the reaction, (6) incubate kinase reaction for 2 hours at room temperature, (7) reactions are spotted onto P81 ion exchange paper, (8) detect kinase activity by filter-binding method.

kinase [8] = target: kinase (Homo sapiens, UniProt P00533); test: as above; format: biochemical; conditions: EGFR WT, read-out: IC50 Activity level EGFR WT
Protocol: as §1, §2

kinase [9] = target: kinase (Homo sapiens, UniProt P00533, DEL746-750); test: as above; format: biochemical; conditions: EGFR E746-A750del, read-out: IC50 Activity level EGFR E746-A750del
Protocol: as §1, §2

kinase [10] = target: kinase (Homo sapiens, UniProt P00533, L858R); test: as above; format: biochemical; conditions: EGFR L858R, read-out: IC50 Activity level EGFR L858R
Protocol: as §1, §2

kinase [11] = test: as above; format: biochemical; conditions: HER 2, read-out: IC50 Activity level HER 2
Protocol: as §1, §2

Sequence of EGFR WT (P00533 25-1210): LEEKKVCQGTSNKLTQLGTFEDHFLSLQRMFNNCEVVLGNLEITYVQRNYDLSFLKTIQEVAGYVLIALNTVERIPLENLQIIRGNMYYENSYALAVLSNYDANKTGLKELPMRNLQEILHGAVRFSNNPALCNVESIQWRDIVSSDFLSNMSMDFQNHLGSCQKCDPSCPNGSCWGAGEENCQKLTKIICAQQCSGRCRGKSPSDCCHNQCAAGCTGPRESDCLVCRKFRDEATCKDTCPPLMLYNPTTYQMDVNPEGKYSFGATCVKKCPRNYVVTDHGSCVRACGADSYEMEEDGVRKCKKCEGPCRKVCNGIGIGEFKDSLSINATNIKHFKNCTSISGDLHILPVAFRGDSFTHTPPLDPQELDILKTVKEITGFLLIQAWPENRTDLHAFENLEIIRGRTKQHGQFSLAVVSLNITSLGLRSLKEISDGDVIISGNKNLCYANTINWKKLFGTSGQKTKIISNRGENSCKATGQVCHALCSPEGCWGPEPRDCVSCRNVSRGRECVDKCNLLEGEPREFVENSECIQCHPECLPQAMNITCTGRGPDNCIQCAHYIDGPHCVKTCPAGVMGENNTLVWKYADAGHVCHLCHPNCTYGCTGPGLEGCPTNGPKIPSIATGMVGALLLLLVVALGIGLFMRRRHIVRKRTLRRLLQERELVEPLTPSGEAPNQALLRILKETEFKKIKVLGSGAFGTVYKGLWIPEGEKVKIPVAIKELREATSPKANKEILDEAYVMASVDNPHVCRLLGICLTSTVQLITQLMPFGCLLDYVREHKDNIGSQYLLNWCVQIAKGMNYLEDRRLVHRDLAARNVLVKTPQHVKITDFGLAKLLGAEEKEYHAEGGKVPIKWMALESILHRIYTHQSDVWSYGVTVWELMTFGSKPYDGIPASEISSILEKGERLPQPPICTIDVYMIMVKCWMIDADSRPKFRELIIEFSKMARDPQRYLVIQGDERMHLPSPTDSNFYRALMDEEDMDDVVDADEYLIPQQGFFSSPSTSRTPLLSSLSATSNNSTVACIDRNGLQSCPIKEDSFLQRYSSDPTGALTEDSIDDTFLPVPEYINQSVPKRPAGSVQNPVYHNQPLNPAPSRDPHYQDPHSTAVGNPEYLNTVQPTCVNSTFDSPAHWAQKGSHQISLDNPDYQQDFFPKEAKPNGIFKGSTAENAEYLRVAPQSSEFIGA
Sequence of kinase (Homo sapiens, UniProt P00533) (P00533 25-1210 limits assumed): as the sequence (P00533 25-1210) above
Sequence of kinase (Homo sapiens, UniProt Q15303) (Q15303 26-1308 limits assumed): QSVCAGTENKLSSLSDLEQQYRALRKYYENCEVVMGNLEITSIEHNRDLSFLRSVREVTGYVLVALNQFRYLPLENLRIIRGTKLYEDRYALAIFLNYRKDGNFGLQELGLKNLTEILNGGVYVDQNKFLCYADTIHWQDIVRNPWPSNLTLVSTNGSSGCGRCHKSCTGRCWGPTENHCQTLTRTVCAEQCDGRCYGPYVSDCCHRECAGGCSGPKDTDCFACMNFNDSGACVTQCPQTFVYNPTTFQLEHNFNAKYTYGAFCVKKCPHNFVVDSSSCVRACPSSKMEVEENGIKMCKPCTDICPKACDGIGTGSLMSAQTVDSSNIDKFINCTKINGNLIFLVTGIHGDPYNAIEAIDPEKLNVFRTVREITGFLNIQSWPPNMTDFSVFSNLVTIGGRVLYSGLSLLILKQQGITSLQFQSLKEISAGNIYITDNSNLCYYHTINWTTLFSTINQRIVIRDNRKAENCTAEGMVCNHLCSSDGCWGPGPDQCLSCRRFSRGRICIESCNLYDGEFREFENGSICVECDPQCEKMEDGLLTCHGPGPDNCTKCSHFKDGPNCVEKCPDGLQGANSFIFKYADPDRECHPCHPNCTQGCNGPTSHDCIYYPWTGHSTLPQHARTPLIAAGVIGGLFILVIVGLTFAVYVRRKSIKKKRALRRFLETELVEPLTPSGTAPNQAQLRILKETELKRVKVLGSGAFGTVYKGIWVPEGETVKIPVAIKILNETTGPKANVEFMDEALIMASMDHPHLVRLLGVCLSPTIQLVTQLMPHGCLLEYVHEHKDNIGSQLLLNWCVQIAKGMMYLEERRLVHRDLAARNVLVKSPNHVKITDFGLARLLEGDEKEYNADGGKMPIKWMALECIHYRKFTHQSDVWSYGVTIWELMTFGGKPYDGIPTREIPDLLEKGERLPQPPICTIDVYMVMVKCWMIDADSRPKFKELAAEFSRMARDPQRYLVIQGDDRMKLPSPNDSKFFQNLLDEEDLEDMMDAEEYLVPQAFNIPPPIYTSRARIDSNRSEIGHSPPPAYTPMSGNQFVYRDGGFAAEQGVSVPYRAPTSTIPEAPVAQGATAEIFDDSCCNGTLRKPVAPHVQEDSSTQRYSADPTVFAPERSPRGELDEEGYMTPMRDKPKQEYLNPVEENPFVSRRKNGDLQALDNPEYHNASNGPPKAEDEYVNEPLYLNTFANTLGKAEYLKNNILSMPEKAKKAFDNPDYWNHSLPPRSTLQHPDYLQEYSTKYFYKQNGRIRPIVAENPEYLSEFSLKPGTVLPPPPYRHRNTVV
Sequence of kinase (Homo sapiens, UniProt P00533, DEL746-750) (P00533 with tags, fused parts or gaps DEL746-750 limits assumed): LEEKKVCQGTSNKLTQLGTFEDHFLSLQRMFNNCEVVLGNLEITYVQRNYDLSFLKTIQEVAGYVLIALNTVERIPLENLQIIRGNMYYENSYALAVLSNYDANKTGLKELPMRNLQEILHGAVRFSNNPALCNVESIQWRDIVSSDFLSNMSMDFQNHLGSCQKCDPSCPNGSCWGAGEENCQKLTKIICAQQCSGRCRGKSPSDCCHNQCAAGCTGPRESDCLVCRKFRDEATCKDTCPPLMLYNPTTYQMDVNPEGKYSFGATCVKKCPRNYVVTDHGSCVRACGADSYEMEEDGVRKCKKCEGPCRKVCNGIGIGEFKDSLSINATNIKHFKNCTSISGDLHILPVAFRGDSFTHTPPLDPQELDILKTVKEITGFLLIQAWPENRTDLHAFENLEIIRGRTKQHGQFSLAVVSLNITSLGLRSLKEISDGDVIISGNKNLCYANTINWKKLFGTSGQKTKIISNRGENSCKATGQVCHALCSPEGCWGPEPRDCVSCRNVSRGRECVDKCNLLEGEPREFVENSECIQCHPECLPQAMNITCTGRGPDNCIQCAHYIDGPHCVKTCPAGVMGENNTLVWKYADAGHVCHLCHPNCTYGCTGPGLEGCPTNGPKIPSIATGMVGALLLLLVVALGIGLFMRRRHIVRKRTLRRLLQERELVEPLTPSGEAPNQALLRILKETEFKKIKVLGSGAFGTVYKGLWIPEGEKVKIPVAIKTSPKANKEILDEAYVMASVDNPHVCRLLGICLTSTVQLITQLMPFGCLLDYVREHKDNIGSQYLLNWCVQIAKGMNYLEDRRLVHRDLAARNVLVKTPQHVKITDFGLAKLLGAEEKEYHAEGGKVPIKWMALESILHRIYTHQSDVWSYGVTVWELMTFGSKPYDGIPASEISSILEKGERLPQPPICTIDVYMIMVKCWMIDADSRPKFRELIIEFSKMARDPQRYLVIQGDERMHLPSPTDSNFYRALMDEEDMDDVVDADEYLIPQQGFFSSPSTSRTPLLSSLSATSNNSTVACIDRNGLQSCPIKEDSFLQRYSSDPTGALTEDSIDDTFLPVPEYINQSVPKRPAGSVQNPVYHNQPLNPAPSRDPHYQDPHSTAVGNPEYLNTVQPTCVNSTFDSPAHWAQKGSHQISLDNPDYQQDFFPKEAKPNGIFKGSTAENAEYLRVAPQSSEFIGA

Row | SMILES | Kd (EGFR E746-A750del) [nM] | Kd (EGFR S752-I759del) [nM] | IC50 (EGFR (L858R)) [nM] | IC50 (EGFR WT) [nM] | IC50 (HER2) [nM] | Kd [1] [nM] | Kd [2] [nM] | Kd [3] [nM] | Kd [4] [nM] | Kd [5] [nM] | Kd [6] [nM] | IC50 (kinase [7]) [nM] | IC50 (kinase [8]) [nM] | IC50 (kinase [9]) [nM] | IC50 (kinase [10]) [nM] | IC50 (kinase [11]) [nM]
1 | CCOc1cc2ncc(C#N)c(Nc3ccc(OCc4cccc(F)c4)c(Cl)c3)c2cc1NC(=O)CC1CCSS1 (stereo not shown) [Example 40] | 1 to 99 | 1 to 99 | 1 to 99 | 100 to 999 | 100 to 999 | 1 to 99 | 1 to 99 | 1 to 99 | 1 to 99 | 1 to 99 | 1 to 99 | – | – | – | – | –
2 | N#Cc1cnc2ccc(NC(=O)C3CSSC3)cc2c1Nc1ccc(OCc2cccc(F)c2)c(Cl)c1 [Example 61, N-(4-((3-Chloro-4-((3-fluorobenzyl)oxy)phenyl)amino)-3-cyanoquinolin-6-yl)-1,2-dithiolane-4-carboxamide] | – | – | – | – | – | – | – | – | – | – | – | 100 to 999 | – | – | – | –
3 | N#Cc1cnc2ccc(NC(=O)CC3CCSS3)cc2c1Nc1ccc(OCc2cccc(F)c2)c(Cl)c1 (stereo not shown) [Example 62, N-(4-((3-Chloro-4-((3-fluorobenzyl)oxy)phenyl)amino)-3-cyanoquinolin-6-yl)-2-(1,2-dithiolan-3-yl)acetamide] | – | – | 1 to 99 | 100 to 999 | – | – | – | – | – | – | – | 1 to 99 | – | – | – | –
4 | N#Cc1cnc2cc(OC[C@H](O)CO)c(NC(=O)CC3CSSC3)cc2c1Nc1ccc(OCc2cccc(F)c2)c(Cl)c1 [Example 90, (R)—N-(4-((3-Chloro-4-((3-fluorobenzyl)oxy)phenyl)amino)-3-cyano-7-(2,3-dihydroxypropoxy)quinolin-6-yl)-2-(1,2-dithiolan-4-yl)acetamide] | – | – | 1 to 99 | 100 to 999 | – | – | – | – | – | – | – | 1 to 99 | 1 to 99 | 1000 to 10000 | 100 to 999 | –
5 | N#Cc1cnc2cc(OC[C@@H](O)CO)c(NC(=O)CC3CSSC3)cc2c1Nc1ccc(OCc2cccc(F)c2)c(Cl)c1 [Example 92, (S)—N-(4-((3-Chloro-4-((3-fluorobenzyl)oxy)phenyl)amino)-3-cyano-7-(2,3-dihydroxypropoxy)quinolin-6-yl)-2-(1,2-dithiolan-4-yl)acetamide] | 1 to 99 | 1 to 99 | 1 to 99 | 100 to 999 | 100 to 999 | – | – | – | – | – | – | 1 to 99 | 1 to 99 | 1000 to 10000 | 100 to 999 | 100 to 999
6 | N#Cc1cnc2cc(OC[C@H](O)CO)c(NC(=O)C3CSSC3)cc2c1Nc1ccc(OCc2cccc(F)c2)c(Cl)c1 [Example 95, (R)—N-(4-((3-Chloro-4-((3-fluorobenzyl)oxy)phenyl)amino)-3-cyano-7-(2,3-dihydroxypropoxy)quinolin-6-yl)-1,2-dithiolane-4-carboxamide] | – | – | 1 to 99 | 100 to 999 | – | – | – | – | – | – | – | – | 1 to 99 | 1000 to 10000 | 100 to 999 | –
7 | N#Cc1cnc2cc(OC[C@@H](O)CO)c(NC(=O)C3CSSC3)cc2c1Nc1ccc(OCc2cccc(F)c2)c(Cl)c1 [Example 98, (S)—N-(4-((3-Chloro-4-((3-fluorobenzyl)oxy)phenyl)amino)-3-cyano-7-(2,3dihydroxypropoxy)quinolin-6-yl)-1,2-dithiolane-4-carboxamide] | – | – | 1 to 99 | 100 to 999 | – | – | – | – | – | – | – | 1 to 99 | 1 to 99 | 100 to 999 | 1 to 99 | 100 to 999
